Test results taken from patent US20220087987A1, “A METHOD FOR TREATING SWI/SNF COMPLEX-DEFICIENT CANCERS COMPRISING GLUTATHIONE (GSH) METABOLIC PATHWAY INHIBITOR” (National Cancer Center, priority 2018, published 2022).
Read-outs that look alike come from different tables or passages of the source.

Key:
[1] = test system: ARID1A-WT HCT116 cells; experiment: Drug library screen, cell viability (CellTiter-Glo); format: cell-based, human
Protocol: (§1) ARID1A-WT and ARID1A-KO HCT116 cancer cells were used for screening assays. […] Cell viability was assessed after 5 days using the CellTiter-Glo Luminescent Cell Viability Assay (Promega). Luminescence was measured using an Envision Multi-label plate reader (PerkinElmer). The luminescence reading was used to determine the cell viability relative to that of cells treated with solvent (DMSO). Candidate compounds were considered if viability of ARID1A-KO cells was less than […] was more than 80%.

[2] = test system: ARID1A-KO HCT116 cells; experiment: as above; format: cell-based, human
Protocol: as §1

[3] = HCT116 ARID1A-WT, 10 μM for 5 days, relative to cells treated with solvent (DMSO)
[4] = HCT116 ARID1A-KO, 10 μM for 5 days, relative to cells treated with solvent (DMSO)

Compound | Cell viability, WT [1, 3] | Cell viability, KO [2, 4] | Cell viability, WT [1] | Cell viability, KO [2]
Cc1cc(C=C2C(=O)C=CC2=O)cc(C)c1O [TX-1918] | 117.0659 | 173.7673 | – | –
NCCCC(N)(C(=O)O)C(F)F (centres unmarked) [DFMO] | 98.8 | 117.8191 | – | –
a-Amanitin | 8.977 | 10.21 | – | –
O=C(Nc1nc2ccccc2n1CCN1CCOCC1)c1cccc([N+](=O)[O-])c1 [IRAK-¼ inhibitor] | 142.234 | 160.7174 | – | –
C[C@H](NC(=O)Cc1cc(F)cc(F)c1)C(=O)N[C@H](C(=O)OC(C)(C)C)c1ccccc1 [DAPT] | 93.12 | 103.8309 | – | –
Antimycin A1 | 4.328 | 7.111 | – | –
COc1ccc2c3c([nH]c2c1)[C@H](C=C(C)C)N1C(=O)[C@@H]2CCCN2C(=O)[C@@H]1C3 [Fumitremorgin C] | 90.41 | 97.39 | – | –
O=C(NCc1ccccc1)c1csc(Nc2ccncn2)n1 [Thiazovivin] | 50.22 | 30.49 | – | –
COc1cccc(-c2cc(=O)c3ccccc3o2)c1N [PD 98059] | 168.8128 | 111.8217 | – | –
O=S(=O)(O)c1cc(N=C=S)ccc1C=Cc1ccc(N=C=S)cc1S(=O)(=O)O [DIDS] | 97.04 | 107.2053 | – | –
c1ccc2c(-c3cnn4cc(-c5ccc(N6CCNCC6)cc5)cnc34)ccnc2c1 [LDN193189] | 2.832 | 2.712 | – | –
Cc1cccc(-c2[nH]ncc2-c2ccc3ncccc3n2)n1 [TGF-b RI kinase inhibitor II] | 90.9 | 104.5326 | – | –
GSK-3 inhibitor IX | 105.4779 | 147.7846 | – | –
COC(=O)c1ccc(NCc2cc(O)ccc2O)cc1 [AG957] | 23.69 | 17.53 | – | –
CCOC(=O)C1=C(N)Oc2ccc(Br)cc2C1C(C#N)C(=O)OCC (centres unmarked) [HA 14-1] | 114.2556 | 119.1814 | – | –
CNC(=N)NCCC[C@H](N)C(=O)O [L-NMMA] | 167.9828 | 116.4094 | – | –
CC(C)(O)/C=C/C(=O)[C@](C)(O)[C@H]1[C@H](O)C[C@@]2(C)[C@@H]3CC=C4[C@@H](C=C(O)C(=O)C4(C)C)[C@]3(C)C(=O)C[C@]12C [Cucurbitacin I] | 13.95 | 15.25 | – | –
O=c1[nH]cc(F)c(=O)[nH]1 [5-FU] | 32.167 | 24.07 | – | –
CCC(=C/[C@H](C)C/C=C/C(C)=C/[C@@H](C)C(=O)[C@@H](C)[C@H](O)[C@@H](C)C/C(C)=C/C(=O)O)/C=C/[C@@H]1OC(=O)C=C[C@@H]1C [Leptomycin B*, Leptomycin B] | 5.031 | 4.969 | – | –
CCCCOc1cc(CC2CNC(=O)N2)ccc1OC (centres unmarked) [Ro-20-1724] | 163.0432 | 105.8008 | – | –
O=S(=O)(NCCNC/C=C/c1ccc(Br)cc1)c1cccc2cnccc12 [H-89] | 78.81 | 119.4541 | – | –
O=C(NC(NC(=S)Nc1ccc(F)c([N+](=O)[O-])c1)C(Cl)(Cl)Cl)C(c1ccccc1)c1ccccc1 (centres unmarked) [ATM/ATR kinase inhibitor] | 59.07 | 76.77 | – | –
C[S+]([O-])c1ccc(-c2nc(-c3ccc(F)cc3)c(-c3ccncc3)[nH]2)cc1 (centres unmarked) [SB 203580] | 163.1226 | 176.0802 | – | –
C/C(O)=C(\C#N)C(=O)Nc1cc(Br)ccc1Br [LFM-A13] | 93.88 | 106.7176 | – | –
Valeryl salicylate | 169.5428 | 118.3391 | – | –
CN([C@@H](Cc1ccc(OS(=O)(=O)c2cccc3cnccc23)cc1)C(=O)N1CCN(c2ccccc2)CC1)S(=O)(=O)c1cccc2cnccc12 [KN-62] | – | – | 113.3229 | 131.0212

Compound | Cell viability, WT [1, 3] | Cell viability, KO [2, 4] | Cell viability, WT [1] | Cell viability, KO [2]
Cc1c[nH]c(/C=C2\C(=O)Nc3ccccc32)c1CCC(=O)O [SU5402] | 110.6763 | 139.2404 | – | –
NS(=O)(=O)c1ccc(Nc2nc(OCC3CCCCC3)c3[nH]cnc3n2)cc1 [NU6102] | 112.51 | 124.8924 | – | –
COc1cc(/C=C(\C#N)C(N)=O)cc(CSc2nc3ccccc3s2)c1O [AG825] | 85.83 | 80.86 | – | –
CCOc1nc(NC(=O)Cc2cc(OC)ccc2OC)cc(N)c1C#N [JNK inhibitor VIII] | 127.134 | 189.4425 | – | –
COc1cc2ncc(-c3ccccc3)nc2cc1OC [AG1296] | 190.9406 | 144.7899 | – | –
CC1CNCCN1S(=O)(=O)c1cccc2cnccc12 (centres unmarked) [H-7] | 116.4721 | 70.52 | – | –
COc1cc2ncnc(Nc3ccc(NC(=O)c4ccccc4)cc3)c2cc1OC [Aurora kinase inhibitor II] | 53.336 | 60.46 | – | –
O=S(=O)(c1cccc2c(I)cccc12)N1CCCNCC1 [ML-7] | 76.67 | 78.88 | – | –
Bleomycin sulfate | 27.28 | 30.2 | – | –
CC(C)c1ccc2c(c1)c(SC(C)(C)C)c(CC(C)(C)C(=O)O)n2Cc1ccc(Cl)cc1 [MK 886] | 116.7328 | 112.1339 | – | –
Nc1ncn([C@@H]2O[C@H](CO)[C@@H](O)[C@H]2O)c(=O)n1 [Azacytidine] | 86.54 | 43.39 | – | –
Nc1[nH]nc2nnc(-c3c(-c4ccccc4)nn4ccccc34)cc12 [ERK inhibitor II] | 103.8555 | 160.6702 | – | –
COc1ccc2c(c1)c1c3c(c4c5ccccc5n(C)c4c1n2CC(O)CN(C)C)C(=O)NC3=O (centres unmarked) [Go7874] | 3.01 | 4.256 | – | –
N#C/C(=C/c1ccc(O)c(O)c1)C(=O)NCc1ccccc1 [AG490] | 152.9882 | 114.4173 | – | –
CN(C)CCCn1cc(C2=C(c3c[nH]c4ccccc34)C(=O)NC2=O)c2ccccc21.Cl [Bisindolymaleimide I, HCl] | 8.077 | 6.106 | – | –
c1cc(-c2cnn3cc(-c4ccc(OCCN5CCCCC5)cc4)cnc23)ccn1 [compound C] | 6.447 | 9.381 | – | –
CO/C1=C\C(C)=C\[C@@H](C)[C@@H](O)[C@@H](C)C/C(C)=C/C=C/[C@H](OC)[C@@H]([C@@H](C)[C@@H](O)[C@H](C)[C@@]2(O)C[C@@H](O)[C@H](C)[C@@H](C(C)C)O2)OC1=O [Bafilomycin AI] | 4.059 | 4.345 | – | –
CC(C)C(C(=O)O)N1C(=O)/C(=C\c2ccc(Br)cc2)SC1=S (centres unmarked) [BH3I-1] | 99.91 | 109.7951 | – | –
b-Rubromycin | 88.7 | 93.87 | – | –
Cc1ccc(-c2cn3c4c(sc3n2)CCCC4)cc1 [Pifithrin-a (cyclic)] | 91.15 | 99.94 | – | –
COC(=O)[C@H](Cc1ccc([N+](=O)[O-])cc1)NC(=O)c1cccc2ccccc12 [SB 328437] | 104.1947 | 112.6489 | – | –
Cc1nc2c(O)cccc2c(=O)[nH]1 [NU1025] | 174.885 | 123.2356 | – | –
CC1CCN=C(N)S1.Cl (centres unmarked) [AMT, HCl] | 171.2223 | 139.818 | – | –
COc1cc2nccc(Oc3ccc(NC(=S)NC(=O)c4ccccc4C)cc3)c2cc1OC | 99 | 107.0846 | – | –
NC1CC1c1cc(F)cc(F)c1OCc1ccccc1 (centres unmarked) [S2101 (LSD1 inhibitor II)] | 80.52 | 83.95 | – | –
CC(C)c1cc(/C=C(\C#N)C(=O)NCCCc2ccccc2)cc(C(C)C)c1O [SU1498] | 165.2374 | 119.3751 | – | –
